Laboratory results: patent US20250154105A1, “POLYCYCLIC COMPOUND AND USE THEREOF” (TYK MEDICINES, INC., priority 2021, published 2025)

Key:
[1] = test system: human pleural mesothelioma cells NCI-H226; assay: Cell anti-proliferation experiment (CCK8), NCI-H226; assay type: cell-based
How it was run: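 Viability was measured by CCK-8 (3 h, A450) after 3-day treatment with 0.15–333.33 nM compound in 0.1% DMSO medium. Curve-fitted IC50 was based on viability normalised to no-drug and cell-free controls.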

YAP-TEAD = YAP-TEAD inhibitor activity by Nano luciferase method (8xGTiiC-nLuc reporter in 293T cells); assay type: cell-based; conditions: Homo sapiens, HEK-293T, 48 hours incubation, read-out: Nano-luciferase detection (IC50)
How it was run: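 293T cells transiently transfected with pGL3B-8xGTiiC-nLuc-CMV-fLuc, seeded 2000 cells/well, then treated 48 h at 37 °C with compounds in 1:3.16 dilution series (top 10,000 nM). Nano luciferase signal read after cell lysis; IC50 from percent of 0 nM control.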

| SMILES | IC50 [1] [µM] | IC50 (YAP-TEAD) [µM] |
| --- | --- | --- |
| CC(C)OC(=O)Nc1ccc2c(c1)c1nn(C)cc1c(=O)n2-c1ccc(C(F)(F)F)cc1 [Example T-194] | ≤ 1 | ≤ 1 |
| C[C@H](NC(=O)c1ccc2c(c1)c1sccc1c(=O)n2-c1ccc(C(F)(F)F)cc1)c1cccc(N)n1 [Example T-429] | ≤ 1 | ≤ 1 |
| Cc1ccc([C@H](C)NC(=O)c2ccc3c(c2)c2nn(C)cc2c(=O)n3-c2ccc(C(F)(F)F)cc2)nc1 [Example T-124] | 1 to 5 | 1 to 5 |
| CC(=O)Nc1ccc2c(c1)c1nn(C)cc1c(=O)n2-c1ccc(C(F)(F)F)cc1 [Example T-175] | ≤ 1 | ≤ 1 |
| CNS(=O)(=O)c1ccc2c(c1)cc(C)c(=O)n2-c1ccc(C(F)(F)F)cc1 [Example T-421] | ≤ 1 | ≤ 1 |
| C[C@H](NC(=O)c1ccc2c(c1)c1c(F)cccc1c(=O)n2-c1ccc(C(F)(F)F)cc1)c1ccccn1 [Example T-258] | ≤ 1 | ≤ 1 |
| CC(C)/C=C/C(=O)Nc1ccc2c(c1)c1nn(C)cc1c(=O)n2-c1ccc(C(F)(F)F)cc1 [Example T-233] | ≤ 1 | ≤ 1 |
| C[C@H](NC(=O)c1ccc2c(c1)c1nn(C)cc1c(=O)n2-c1ccc(C(F)(F)F)cc1)c1cccc(C#N)n1 [Example T-152] | ≤ 1 | ≤ 1 |
| CNS(=O)(=O)c1ccc2c(c1)c1nn(C)cc1c(=O)n2-c1cccc(C(F)(F)F)c1 [Example T-58] | ≤ 1 | ≤ 1 |
| C[C@H](NC(=O)c1ccc2c(c1)c1cncnc1c(=O)n2-c1ccc(C(F)(F)F)cc1)c1ccccn1 [Example T-333] | ≤ 1 | ≤ 1 |
| Cn1cc2c(=O)n(-c3ccc(C(F)(F)F)cc3)c3ccc(NC(=O)N4CCCCC4)cc3c2n1 [Example T-185] | ≤ 1 | ≤ 1 |
| C[C@H](NC(=O)c1ccc2c(c1)cc(C(F)F)c(=O)n2-c1ccc(C(F)(F)F)cc1)c1cccc(N)n1 [Example T-417] | ≤ 1 | ≤ 1 |
| Cc1c(Br)c(=O)n(-c2ccc(C(F)(F)F)cc2)c2ccc(C(=O)N[C@@H](C)c3ccccn3)cc12 [Example T-278] | ≤ 1 | ≤ 1 |
| C[C@@H](C(=O)Nc1ccc2c(c1)c1nn(C)cc1c(=O)n2-c1ccc(C(F)(F)F)cc1)c1ccccn1 [Example T-168] | 1 to 5 | 1 to 5 |
| CC(C)NC(=O)c1ccc2c(c1)cc(Br)c(=O)n2-c1ccc(C(F)(F)F)cc1 [Example T-50] | 1 to 5 | 1 to 5 |
| COCCOC(=O)Nc1ccc2c(c1)c1nn(C)cc1c(=O)n2-c1ccc(C(F)(F)F)cc1 [Example T-192] | ≤ 1 | ≤ 1 |
| COC[C@H](C)NC(=O)c1ccc2c(c1)C1=C(CCC1)CN2c1ccc(C(F)(F)F)cc1 [Example T-426] | ≤ 1 | ≤ 1 |
| CNS(=O)(=O)c1ccc2c(c1)c1cn(C)nc1c(=O)n2-c1ccc(F)c(F)c1 [Example T-66] | ≤ 1 | ≤ 1 |
| CNS(=O)(=O)c1ccc2c(c1)c1ncn(C)c1c(=O)n2Cc1ccc(C(F)(F)F)cc1 [Example T-48] | ≤ 1 | ≤ 1 |
| C[C@H](NC(=O)c1ccc2c(c1)c1nn(C)cc1c(=O)n2-c1ccc(C(F)(F)F)cc1)c1ccc(C(F)(F)F)cn1 [Example T-123] | 1 to 5 | 1 to 5 |

| SMILES | IC50 [1] [µM] | IC50 (YAP-TEAD) [µM] |
| --- | --- | --- |
| C[C@H](NC(=O)c1ccc2c(c1)c1nn(C)cc1c(=O)n2-c1ccc(OC(F)(F)F)cc1)c1ccccc1 [Example T-230] | ≤ 1 | ≤ 1 |
| CNS(=O)(=O)c1ccc2c(c1)c1ncn(C)c1c(=O)n2-c1ccccc1 [Example T-60] | ≤ 1 | ≤ 1 |
| C[C@H](NC(=O)c1ccc2c(c1)c1nscc1c(=O)n2-c1ccc(C(F)(F)F)cc1)c1ccccn1 [Example T-329] | ≤ 1 | ≤ 1 |
| C[C@H](NC(=O)c1ccc2c(c1)c1c(c(=O)n2-c2ccc(C(F)(F)F)cc2)C(F)CC1)c1ccccn1 (some centres unmarked) [Example T-292] | ≤ 1 | ≤ 1 |
| C[C@H](NC(=O)c1cnc2c(c1)c1ccccc1c(=O)n2-c1ccc(C(F)(F)F)cc1)c1ccccn1 [Example T-244] | ≤ 1 | ≤ 1 |
| COC(=O)c1ccc2c(c1)c1nn(C)cc1c(=O)n2-c1ccc(C(F)(F)F)cc1 [Example T-100] | 1 to 5 | 1 to 5 |
| C[C@H](NC(=O)c1ccc2c(c1)c1ccnnc1c(=O)n2-c1ccc(C(F)(F)F)cc1)c1ccccn1 [Example T-336] | ≤ 1 | ≤ 1 |
| C[C@H](NC(=O)c1ccc2c(c1)c1nn(C)cc1c(=O)n2-c1ccc(C(F)(F)F)cc1)c1cccc(Cl)n1 [Example T-132] | 1 to 5 | 1 to 5 |
| Cc1occ2c(=O)n(-c3ccc(C(F)(F)F)cc3)c3ccc(C(=O)N[C@@H](C)c4ccccn4)cc3c12 [Example T-288] | ≤ 1 | ≤ 1 |
| C[C@H](NC(=O)c1cnc2c(c1)c1ccccc1c(=O)n2-c1ccc(C(F)(F)F)cc1)c1cccc(N)n1 [Example T-437] | ≤ 1 | ≤ 1 |
| Cc1cc2cc(C(=O)N[C@@H](C)c3ccccc3)cnc2n(-c2ccc(C(F)(F)F)cc2)c1=O [Example T-462] | ≤ 1 | ≤ 1 |
| CNS(=O)(=O)c1ccc2c(c1)-c1cn(C)nc1CCN2c1ccc(C(F)(F)F)cc1 [Example T-55] | ≤ 1 | ≤ 1 |
| C[C@H](NC(=O)c1ccc2c(c1)c1ncoc1c(=O)n2-c1ccc(C(F)(F)F)cc1)c1ccccn1 [Example T-396] | ≤ 1 | ≤ 1 |
| Cn1cc2c(=O)n(-c3ccc(C(F)(F)F)cc3)c3ccc(C(=O)NCc4ncccn4)cc3c2n1 [Example T-139] | 1 to 5 | 1 to 5 |
| COc1ccc2c(=O)n(-c3ccc(C(F)(F)F)cc3)c3ccc(C(=O)N[C@@H](C)c4ccccn4)cc3c2c1 [Example T-315] | ≤ 1 | ≤ 1 |
| Cc1cc2cc(C(=O)N[C@@H](C)c3ccccn3)cnc2n(-c2ccc(C(F)(F)F)cc2)c1=O [Example T-460] | ≤ 1 | ≤ 1 |
| C=CC(=O)Nc1ccc2c(c1)c1c(c(=O)n2-c2ccc(C(F)(F)F)cc2)CCC1 [Example T-424] | ≤ 1 | ≤ 1 |
| CNS(=O)(=O)c1ccc2c(c1)c1nn(C)cc1c(=O)n2-c1ccc(F)c(F)c1 [Example T-68] | ≤ 1 | ≤ 1 |
| Cn1cc2c(=O)n(-c3ccc(C(F)(F)F)cc3)c3ccc(NC(=O)CCCCl)cc3c2n1 [Example T-173] | 1 to 5 | 1 to 5 |
| CC(C)NC(=O)c1ccc2c(c1)c1nn(C)cc1c(=O)n2-c1ccc(C(F)(F)F)cc1 [Example T-86] | ≤ 1 | ≤ 1 |

| SMILES | IC50 [1] [µM] | IC50 (YAP-TEAD) [µM] |
| --- | --- | --- |
| C[C@H](NC(=O)c1ccc2c(c1)c1cc(C#N)ccc1c(=O)n2-c1ccc(C(F)(F)F)cc1)c1ccccn1 [Example T-319] | ≤ 1 | ≤ 1 |
| O=C(O)c1ccc2c(ccc(=O)n2-c2ccc(C(F)(F)F)cc2)c1 [Example T-1] | 1 to 5 | 1 to 5 |
| C[C@H](NC(=O)c1ccc2c(c1)c1csc(Cl)c1c(=O)n2-c1ccc(C(F)(F)F)cc1)c1ccccn1 [Example T-300] | ≤ 1 | ≤ 1 |
| C[C@H](NC(=O)c1ccc2c(c1)c1nnccc1c(=O)n2-c1ccc(C(F)(F)F)cc1)c1ccccn1 [Example T-334] | ≤ 1 | ≤ 1 |
| C[C@H](NC(=O)c1cnc2c(c1)c1csnc1c(=O)n2-c1ccc(C(F)(F)F)cc1)c1ccccn1 [Example T-439] | ≤ 1 | ≤ 1 |
| C[C@H](NC(=O)c1ccc2c(c1)c1cc(Cl)ccc1c(=O)n2-c1ccc(C(F)(F)F)cc1)c1ccccn1 [Example T-311] | ≤ 1 | ≤ 1 |
| CC1c2ccccc2-c2cc(C(=O)N[C@@H](C)c3ccccn3)ccc2N1c1ccc(C(F)(F)F)cc1 (some centres unmarked) [Example T-281] | ≤ 1 | ≤ 1 |
| CNS(=O)(=O)c1ccc2c(c1)-c1ncn(C)c1CN2Cc1ccc(C(F)(F)F)cc1 [Example T-49] | ≤ 1 | ≤ 1 |
| CNS(=O)(=O)c1ccc2c(c1)c1c(c(=O)n2-c2ccc(C(F)(F)F)cc2)CCC1 [Example T-427] | ≤ 1 | ≤ 1 |
| Cn1cc2c(=O)n(-c3ccc(C(F)(F)F)cc3)c3ccc(NS(=O)(=O)c4ccc(F)cc4)cc3c2n1 [Example T-187] | ≤ 1 | ≤ 1 |
| C[C@H](NC(=O)c1ccc2c(c1)c1cnncc1c(=O)n2-c1ccc(C(F)(F)F)cc1)c1ccccn1 [Example T-335] | ≤ 1 | ≤ 1 |
| C[C@H](NC(=O)c1ccc2c(c1)c1ccccc1c(=O)n2C1CCC(F)(F)CC1)c1ccccn1 [Example T-268] | ≤ 1 | ≤ 1 |
| C[C@H](NC(=O)c1ccc2c(c1)c1c(c(=O)n2-c2ccc(C(F)(F)F)cc2)CN(Cc2ccccc2)C1)c1ccccn1 [Example T-251] | 1 to 5 | 1 to 5 |
| Cn1cc2c(=O)n(-c3ccc(C(F)(F)F)cc3)c3ccc(C(=O)O)cc3c2n1 [Example T-110] | 1 to 5 | 1 to 5 |
| Cn1cc2c(=O)n(-c3ccc(C(F)(F)F)cc3)c3ccc(C(=O)NC4CC4)cc3c2n1 [Example T-102] | ≤ 1 | ≤ 1 |
| C=CC(=O)N[C@@H](C)c1c(C)c2ccccc2n(-c2ccc(C(F)(F)F)cc2)c1=O [Example T-284] | 1 to 5 | 1 to 5 |
| Cn1cc2c(=O)n(-c3ccc(C(F)(F)F)cc3)c3ccc(C(=O)NCc4ccncn4)cc3c2n1 [Example T-133] | 1 to 5 | 1 to 5 |
| C[C@H](NC(=O)c1ccc2c(c1)c1c(c(=O)n2-c2ccc(C(F)(F)F)cc2)CCC1F)c1ccccn1 (some centres unmarked) [Example T-290] | ≤ 1 | ≤ 1 |
